Measured values as given in patent EP0670711B1, “ANTIFUNGAL MOUTHCARE COMPOSITIONS” (AMBI Inc., priority 1992, dated 1994).

Tests used:
Assay type in all cases: cell-based
Staph.aureus = assay: nominal inhibitory concentration (NIC) assay
Candida kefyr = assay: nominal inhibitory concentration (NIC) assay
Porph. gingivalis = assay: nominal inhibitory concentration (NIC) assay
Act. israelii = assay: nominal inhibitory concentration (NIC) assay
Strep. salivarius = assay: nominal inhibitory concentration (NIC) assay
C albicans NCTC 3089 = assay: zone diffusion assay; conditions: solution with 500ppm of each agent
Description: (§1) The assay was repeated for each of cetyl pyridinium chloride, chlorhexidine or triclosan individually. […]

W recta NCTC 11489 = assay: zone diffusion assay; conditions: solution with 500ppm of each agent
Description: as §1

C kefyr NCTC 3106 = assay: zone diffusion assay; conditions: solution with 500ppm of each agent
Description: as §1

S sanguis NCTC 10904 = assay: zone diffusion assay; conditions: solution with 500ppm of each agent
Description: as §1

S mutans NCTC 11061 = assay: zone diffusion assay; conditions: solution with 500ppm of each agent
Description: as §1

C tropicalis NCTC 3114 = assay: zone diffusion assay; conditions: solution with 500ppm of each agent
Description: as §1

F nucleatum NCTC 10562 = assay: zone diffusion assay; conditions: solution with 500ppm of each agent
Description: as §1

A actinomyces NCTC 9709 = assay: zone diffusion assay; conditions: solution with 500ppm of each agent
Description: as §1

Strep. sanguis = assay: nominal inhibitory concentration (NIC) assay
Act. naeslundii = assay: nominal inhibitory concentration (NIC) assay
Strep mitior = assay: nominal inhibitory concentration (NIC) assay
Bact. ureolyticus = assay: nominal inhibitory concentration (NIC) assay
Strep. agalactiæ = assay: nominal inhibitory concentration (NIC) assay
Act. actinomycetem = assay: nominal inhibitory concentration (NIC) assay
Candida organisms = assay: NIC assay, summary for Candida; conditions: result in words
Description: (§2) Thus, lower levels of such antimicrobial agent may be used in the present invention if it intended that such antimicrobial agent is being included principally to provide anti-Candida activity, to supplement the gap in the spectrum of activity of nisin.

G.vaginalis = assay: nominal inhibitory concentration (NIC) assay
Fuso. nucleatum = assay: nominal inhibitory concentration (NIC) assay
Strep.mutans = assay: nominal inhibitory concentration (NIC) assay
Strep.pyogenes = assay: nominal inhibitory concentration (NIC) assay
Candida albicans = assay: nominal inhibitory concentration (NIC) assay
[1] = system: all the organisms shown in the Example 25 Table 1; assay: NIC assay, summary over all organisms of Table 1; conditions: all organisms of Example 25 Table 1 (for CPC: kills all the organisms)
Description: as §2

Strep. milleri = assay: nominal inhibitory concentration (NIC) assay
Candida tropicalis = assay: nominal inhibitory concentration (NIC) assay
Peptostrepto. micros = assay: nominal inhibitory concentration (NIC) assay
Lacto odontolyticus = assay: nominal inhibitory concentration (NIC) assay
Bact. intermedius = assay: nominal inhibitory concentration (NIC) assay
Act. odontolyticus = assay: nominal inhibitory concentration (NIC) assay
Strep. mitis = assay: nominal inhibitory concentration (NIC) assay

In the case of nisin [Ambicin N], the NIC (Staph.aureus) is reported as 0.13 ppm, the NIC (Candida kefyr) is reported as >128 ppm and the NIC (Porph. gingivalis) is reported as >1.28 ppm. The NIC (Act. israelii) was 0.53 ppm, the NIC (Strep. salivarius) was 0.18 ppm and the mean zones (C albicans NCTC 3089) was 0 mm. The mean zones (W recta NCTC 11489) was 28.19 mm, the mean zones (C kefyr NCTC 3106) was 0 mm and the mean zones (S sanguis NCTC 10904) was 15.38 mm. For the same substance, the mean zones (S mutans NCTC 11061) was 18.36 mm, the mean zones (C tropicalis NCTC 3114) was 0 mm and the mean zones (F nucleatum NCTC 10562) was 29.38 mm. For the same substance, the mean zones (A actinomyces NCTC 9709) was 23.04 mm, the NIC (Strep. sanguis) was 0.23 ppm and the NIC (Act. naeslundii) was >12.8 ppm. For the same substance, the NIC (Strep mitior) was 0.05 ppm, the NIC (Bact. ureolyticus) was 0.035 ppm and the NIC (Strep. agalactiæ) was 0.22 ppm. The NIC (Act. actinomycetem) was 0.02 ppm, the “inhibitory activity against candida species” value (Candida organisms) was “lacks effective inhibitory activity” and the NIC (G.vaginalis) was 0.22 ppm. It also gave an NIC (Fuso. nucleatum) of 0.048 ppm, an NIC (Strep.mutans) of 0.43 ppm and an NIC (Strep.pyogenes) of 0.009 ppm. For the same substance, the NIC (Candida albicans) was >128 ppm, the “levels needed to inhibit all the desired oral microrganisms” value [1] was “about 0.99 ppm” and the NIC (Strep. milleri) was 0.14 ppm. The NIC (Candida tropicalis) was >128 ppm, the NIC (Peptostrepto. micros) was >1.28 ppm and the NIC (Lacto odontolyticus) was 0.02 ppm. It also gave an NIC (Bact. intermedius) of 0.91 ppm, an NIC (Act. odontolyticus) of 0.12 ppm and an NIC (Strep. mitis) of 0.33 ppm.
